Like-named read-outs stand apart in the source and are kept apart here.
Key:
Format in all cases: cell-based
RXF 393 = assay: NCI-60 5 dose screen, Renal Cancer; details: Homo sapiens
A498 = assay: NCI-60 5 dose screen, Renal Cancer; details: Homo sapiens
MDA-MB-231 cells = assay: Cell viability assay, antiproliferative activity; details: Homo sapiens, MDA-MB-231, 72 h, read-out: Antiproliferative Activity IC50 MDA-MB-231, 72 h
Source text: Selected β-lactam compounds were next evaluated in the triple negative cell line MDA-MB-231 (Table 4). […] These cancers are difficult to treat since they are generally not responsive to hormone therapies such as the selective oestrogen receptor modulator (SERM) tamoxifen, or aromatase inhibitors such as anastrozole, or to the monoclonal antibody Herceptin, which targets the HER2 receptor. There are fewer treatment options available for TNBC compared with ER+, PR+ and HER2+ breast cancers and the prognosis is poorer. […]. The human breast carcinoma cell line MCF-7 was purchased from the European Collection of Animal Cell Cultures (ECACC). Triple negative breast cancer Hs578T cells and its invasive variant Hs578Ts(i)8 were a kind gift from Dr. Susan McDonnell, School of Chemical and Bioprocess Engineering, University College Dublin. U266 cells were a gift from Dr. Tony McElligott, School of Medicine, St James’s Hospital, Trinity College Dublin. HT-29 cells were purchased from the European Collection of Cell Cultures (originating from a human adenocarcinoma of the colon). The human breast carcinoma cell line MDA-MB-231 and the HL-60 cells derived from a patient with acute myeloid leukaemia were both obtained from ECACC (Salisbury, UK). The SW-480 cells were a kind gift from Dr. Brian Flood, School of Biochemistry and Immunology, Trinity College Dublin. HEK-293T (normal epithelial embryonic kidney cells) were cultured in Dulbecco’s Modified Eagle’s Medium (DMEM) with GlutaMAXTM-I in the absence of non-essential amino acids. Human breast cancer MCF-7 cells and multiple myeloma U266 cells were cultured in Minimum Essential Media (MEM) with GlutaMAX™-I, supplemented with 1% (v/v) non-essential amino acids, 10% 2(v/v) foetal bovine serum (FBS) and 1% (v/v) penicillin/streptomycin 5000 U/mL. MDA-MB-231 cells were maintained in DMEM supplemented with 10% (v/v) foetal bovine serum, 2 mM L-glutamine and 100 μg/mL penicillin/streptomycin (complete medium). Colon cancer HT-29 and SW-480 and triple negative breast cancer Hs578T and its invasive variant Hs578T8i were cultured in DMEM with GlutaMAX™-I, with the same supplement in the absence of non-essential amino acids. Leukaemia HL-60 cancer cells were cultured in Roswell Park Memorial Institute Media (RPMI-1640) with GlutaMAX™-I, supplemented with 10% FCS media, and 100 μg/mL penicillin/streptomycin as above. Cell numbers were monitored using a haemocytometer. Cell culture flasks were incubated in a humidified incubator (5% CO2/95% air) at 37 °C. All cell lines were sub-cultured three times per week with trypsinisation using TrypLE Express (1X) required for adherent cell lines.
. All stock solutions and serial dilution in ethanol/DMSO were stored at -20 °C. All cells were seeded at a density of 2.5 × 10^4 cells/mL in a 96-well plate (200 μL per well). The cells were incubated in a […] atmosphere at 37 °C for 24 h, then treated with test compound (2 μL of stock solutions per 200-microlitre well) in ethanol to obtain a concentration range of 1 nM–200 μM for the study. The plates were then re-incubated for a further 72 h. Control wells contained an equivalent volume of the vehicle ethanol or DMSO (1% v/v). MTT cell viability assay: The culture medium was removed, and the cells were washed with phosphate buffered saline (PBS, […]). MTT (dissolved in PBS, […]) was added to obtain a final concentration of MTT (1 mg/mL). Cells were incubated at 37 °C for 3 h in the dark. Solubilisation was commenced by the addition of DMSO ([…]) and the cells were maintained at 20 °C in the dark for 20 min before reading the absorbance to ensure complete colour diffusion. The absorbance value of control cells (no added compound) was set to 100% cell viability and absorbance versus cell density per well was determined to assess cell viability using Graph-Pad Prism software. […]

NCI 60 cell line panel = assay: NCI 60 cell line screen, full panel; details: for GI50: Homo sapiens; for LC50: read-out: LC50 (mean over NCI 60 panel)
Source text: (§1) The novel 3-haloazetidinone compounds 10e, 11n and 16d were selected by NCI for further biological evaluation in the NCI 60 cell line screen following an initial Tier 1 profiling screen. […]. these values were in the sub-micromolar range for all the cell lines tested except for the breast cancer cell line T-47D, where the progesterone receptors are not regulated by estradiol. […]. [table]

[1] = NCI 60 cell line screen, full panel; details: human
Source text: as §1

TK-10 = assay: NCI-60 5 dose screen, Renal Cancer; details: Homo sapiens
COLO205 = assay: NCI-60 5 dose screen, Colon Cancer; details: Homo sapiens, COLO 205
MDA-MB-468 = assay: NCI-60 5 dose screen, Breast Cancer; details: Homo sapiens
[2] = 60 cell, NCI 60 panel mean, read-out: GI50 (mean over NCI 60 panel)
[3] = 60 cell, NCI 60 panel mean, read-out: MID GI50 (full panel mean-graph mid-point)
[4] = NCI 60 cancer cell line panel (mean over the panel), NCI 60 panel mean, read-out: LC50 (mean over NCI 60 panel)

COc1ccc([C@H]2[C@H](Cl)C(=O)N2c2cc(OC)c(OC)c(OC)c2)cc1 (relative stereo) [Compound 10e trans, Trans-3-chloro-1-(3,4,5-trimethoxyphenyl)-4-(4-methoxyphenyl) azetidin-2-one]
GI50 (RXF 393; read-out: GI50): 0.0271 µM
GI50 (A498; read-out: GI50): 0.0271 µM
IC50 (MDA-MB-231 cells; 10e and 11n results from NCI): 0.0686 µM
GI50 (NCI 60 cell line panel; [2]): 0.0741 µM
GI50 (NCI 60 cell line panel; [3]): 0.0741 µM
LC50 (NCI 60 cell line panel; NCI 60 panel mean, listed as 10e): 91.2 µM
LC50 [1, 4]: 81.3 µM
LC50 ([1]; NCI 60 cancer cell line panel, individual cell lines, all but one cell line for 10e, all but four cell lines for 11n, read-out: LC50 in individual cell lines): > 100 µM
GI50 (TK-10; read-out: GI50): 0.0922 µM
GI50 (COLO205; COLO205, read-out: GI50): 0.0492 µM
GI50 (MDA-MB-468; read-out: GI50): 0.0508 µM

COc1ccc(/C=C\c2cc(OC)c(OC)c(OC)c2)cc1O [CA-4, Combretastatin A-4]
IC50 (MDA-MB-231 cells; 10e and 11n results from NCI): 0.043 µM
GI50 (NCI 60 cell line panel; [2]): 0.099 µM
TGI (mean over NCI 60 panel) (NCI 60 cell line panel; NCI 60 panel mean): 10.30 µM

COc1ccc(C2N(c3cc(OC)c(OC)c(OC)c3)C(=O)C2(Cl)Cl)cc1O (stereo not drawn) [Compound 11n, 3,3-Dichloro-4-(3-hydroxy-4-methoxyphenyl)-1-(3,4,5-trimethoxyphenyl)azetidin-2-one]
GI50 (RXF 393): 0.03 µM
GI50 (A498): 0.0226 µM
IC50 (MDA-MB-231 cells): 0.0316 µM
GI50 (NCI 60 cell line panel; 60 cell, read-out: GI50 (mean over NCI 60 panel), NCI 60 panel mean): 0.0537 µM
GI50 (NCI 60 cell line panel; 60 cell, read-out: GI50 in individual cell lines, 43 of the cell lines investigated): < 0.1 µM
GI50 (NCI 60 cell line panel; 60 cell, read-out: GI50 value, CNS cancer cell lines): 0.0199 to 0.0514 µM
GI50 (NCI 60 cell line panel; 60 cell, read-out: GI50 value, non-small cell lung cancer cell lines): 0.0164 to 0.0464 µM
GI50 (NCI 60 cell line panel; 60 cell, read-out: GI50 value, prostate cancer cell lines): 0.0353 to 0.0359 µM
GI50 (NCI 60 cell line panel; 60 cell, read-out: MID GI50 (full panel mean-graph mid-point), NCI 60 panel mean): 0.0537 µM
GI50 (NCI 60 cell line panel; read-out: GI50 value, breast cancer cell lines apart from T-47D): 0.0226 to 0.0428 µM
TGI (mean over NCI 60 panel) (NCI 60 cell line panel; NCI 60 panel mean): 10.00 µM
LC50 (NCI 60 cell line panel; NCI 60 panel mean): 83.2 µM
LC50 ([1]; NCI 60 panel mean, read-out: LC50 (mean over NCI 60 panel)): 91.2 µM
LC50 ([1]; all but one cell line for 10e, all but four cell lines for 11n, read-out: LC50 in individual cell lines): > 100 µM
GI50 (TK-10): 0.126 µM
GI50 (COLO205): 2.91 µM
GI50 (MDA-MB-468): 0.0226 µM

CCSc1ccc(C2C(Br)C(=O)N2c2cc(OC)c(OC)c(OC)c2)cc1 (stereo not drawn) [Compound 16d, 3-Bromo-4-(4-(ethylthio)phenyl)-1-(3,4,5-trimethoxyphenyl)azetidin-2-one]
GI50 (RXF 393; read-out: GI50): 0.17 µM
GI50 (A498; read-out: GI50): 0.103 µM
GI50 (NCI 60 cell line panel; [3]): 0.407 µM
LC50 (NCI 60 cell line panel; NCI 60 panel mean): 81.3 µM
LC50 [1, 4]: 83.2 µM
GI50 (TK-10; read-out: GI50): 14.3 µM
GI50 (COLO205; COLO205, read-out: GI50): 0.23 µM
GI50 (MDA-MB-468; read-out: GI50): 0.154 µM

Source: publication PMC8624998, “Synthesis and Antiproliferative Evaluation of 3-Chloroazetidin-2-ones with Antimitotic Activity: Heterocyclic Bridged Analogues of Combretastatin A-4” (Pharmaceuticals, 2021)
